Assay results as given in patent publication US20140107316A1, “DRUG DELIVERY CONJUGATES CONTAINING UNNATURAL AMINO ACIDS AND METHODS FOR USING” (priority 2012, published 2014).
“Also recorded” adds a separate entry of the source. Read-outs that look alike come from different tables or passages of the source.

Legend:
IGROV1 = experiment: In vitro test against cancer cell lines, IGROV1; assay type: cell-based, Human
Protocol: (§1) In vitro test against the various cancer cell lines. Cells are heavily seeded in 24-well Falcon plates and allowed to form nearly confluent monolayers overnight. Thirty minutes prior to the addition of the test compound, spent medium is aspirated from all wells and replaced with fresh folate-deficient RPMI medium (FFRPMI). A subset of wells are designated to receive media containing 100 μM folic acid. The cells in the designated wells are used to determine the targeting specificity. […] Following one rinse with 1 mL of fresh FFRPMI containing 10% heat-inactivated fetal calf serum, each well receives 1 mL of medium containing increasing concentrations of test compound (4 wells per sample) in the presence or absence of 100 μM free folic acid as indicated. Treated cells are pulsed for 2 h at 37° C., rinsed 4 times with 0.5 mL of media, and then chased in 1 mL of fresh medium up to 70 h. Spent medium is aspirated from all wells and replaced with fresh medium containing 5 μCi/mL ^3H-thymidine. […] A 450 μL aliquot of each solubilized sample is transferred to a scintillation vial containing 3 mL of Ecolume scintillation cocktail and then counted in a liquid scintillation counter. Final tabulated results are expressed as the percentage of ^3H-thymidine incorporation relative to untreated controls.
(§2) Folate receptor expressing cells. […] EC1456 was evaluated from 0.1-100 nM.

KB-CR tumors = experiment: Cisplatin-resistant KB-CR tumor model; assay type: in vivo; conditions: 2 μmol/kg i.v., three times per week (M/W/F), 2 weeks
Protocol: Toxicity as Measured by Weight Loss. The percentage weight change of the mice was determined in mice (5 mice/group) on selected days post-tumor inoculation (PTI), and graphed.

A549 = experiment: In vitro test against cancer cell lines, A549; assay type: cell-based, Human; conditions: A549, FR status −; evaluated from 0.1-100 nM
Protocol: as §1, §2

H23 = experiment: In vitro test against cancer cell lines, H23; assay type: cell-based, Human; conditions: H23, FR status −; evaluated from 0.1-100 nM
Protocol: as §1, §2

LNCaP = experiment: In vitro test against cancer cell lines, LNCaP; assay type: cell-based, Human; conditions: FR status −, evaluated from 0.1-100 nM, read-out: EC1456 Activity (IC50)
Protocol: as §1, §2

[1] = test system: folate receptor-positive KB cells
Protocol: Inhibition of Cellular DNA Synthesis. The compounds described herein were evaluated using an in vitro cytotoxicity assay that predicts the ability of the drug to inhibit the growth of folate receptor-positive KB cells. The compounds were comprised of folate linked to a respective chemotherapeutic drug, as prepared according to the protocols described herein. The KB cells were exposed for up to 7 h at 37° C. to the indicated concentrations of folate-drug conjugate in the absence or presence of at least a 100-fold excess of folic acid. The cells were then rinsed once with fresh culture medium and incubated in fresh culture medium for 72 hours at 37° C. Cell viability was assessed using a ^3H-thymidine incorporation assay.
In vitro test against the various cancer cell lines. Cells are heavily seeded in 24-well Falcon plates and allowed to form nearly confluent monolayers overnight. Thirty minutes prior to the addition of the test compound, spent medium is aspirated from all wells and replaced with fresh folate-deficient RPMI medium (FFRPMI). A subset of wells are designated to receive media containing 100 μM folic acid. The cells in the designated wells are used to determine the targeting specificity. […] Following one rinse with 1 mL of fresh FFRPMI containing 10% heat-inactivated fetal calf serum, each well receives 1 mL of medium containing increasing concentrations of test compound (4 wells per sample) in the presence or absence of 100 μM free folic acid as indicated. Treated cells are pulsed for 2 h at 37° C., rinsed 4 times with 0.5 mL of media, and then chased in 1 mL of fresh medium up to 70 h. Spent medium is aspirated from all wells and replaced with fresh medium containing 5 μCi/mL ^3H-thymidine. Following a further 2 h 37° C. incubation, cells are washed 3 times with 0.5 mL of PBS and then treated with 0.5 mL of ice-cold 5% trichloroacetic acid per well. After 15 min, the trichloroacetic acid is aspirated and the cell material solubilized by the addition of 0.5 mL of 0.25 N sodium hydroxide for 15 min. A 450 μL aliquot of each solubilized sample is transferred to a scintillation vial containing 3 mL of Ecolume scintillation cocktail and then counted in a liquid scintillation counter. Final tabulated results are expressed as the percentage of ^3H-thymidine incorporation relative to untreated controls.
as §2

MDA-MB-231 tumors = experiment: Established subcutaneous MDA-MB-231 breast cancer xenograft; assay type: in vivo, mice; conditions: three times per week
From the text: Inhibition of Tumor Growth in Mice.
Toxicity as Measured by Weight Loss.
Triple negative breast cancer (TNBC) is a subtype characterized by lack of gene expression for estrogen, progesterone and Her2/neu. TNBC is difficult to treat, and its death rate is disproportionately higher than for any other subtype of breast cancer.

Structure (SMILES): CCCC(=O)OCN(C(=O)[C@@H](NC(=O)[C@H]1CCCCN1C)[C@@H](C)CC)[C@H](C[C@@H](OC(C)=O)c1nc(C(=O)N[C@@H](Cc2ccc(O)cc2)C[C@H](C)C(=O)NNC(=O)OCCSSC[C@@H](NC(=O)[C@H](CCC(=O)NC[C@H](O)[C@@H](O)[C@H](O)[C@H](O)CO)NC(=O)[C@@H](CCC(=O)O)NC(=O)[C@H](CCC(=O)NC[C@H](O)[C@@H](O)[C@H](O)[C@H](O)CO)NC(=O)[C@@H](CCC(=O)O)NC(=O)[C@H](CCC(=O)NC[C@H](O)[C@@H](O)[C@H](O)[C@H](O)CO)NC(=O)CC[C@@H](NC(=O)c2ccc(NCc3cnc4nc(N)[nH]c(=O)c4n3)cc2)C(=O)O)C(=O)O)cs1)C(C)C [EC1456]
- Competable up to 100 nM (IGROV1; IGROV1): Yes
- IC50 (IGROV1; IGROV1, FR status +, evaluated from 0.1-100 nM, read-out: EC1456 Activity (IC50)): 0.72 nM
- complete responses (KB-CR tumors): ⅕
- cures (KB-CR tumors): ⅘
- weight loss / host animal toxicity (KB-CR tumors): did not exhibit significant host animal toxicity; also recorded: did not cause any weight loss
- EC1456 Activity (IC50) (A549): Inactive
- EC1456 Activity (IC50) (H23): Inactive
- IC50 (LNCaP): ~850 nM
- improvement in specificity compared to EC0531 [1]: 4 fold
- Competable up to 100 nM ([1]; KB): Yes
- In vitro specificity (fold) ([1]; difference in IC50 between competed and non-competed group): 944 fold
- specificity for the folate receptor as determined by folic acid competition ([1]; difference in IC50 between competed group and non-competed group): ca. 1000 fold
- IC50 ([1]; read-out: 50% competition, competed group (excess folic acid)): 1420 nM
- IC50 ([1]; read-out: EC1456 Activity (IC50), KB, FR status +++, evaluated from 0.1-100 nM): 2.3 nM
- IC50 ([1]; read-out: In vitro IC50): 1.5 nM
- weight loss / gross whole animal toxicity (% weight change) (MDA-MB-231 tumors; 2 μmmol/kg i.v., 2 weeks): did not cause gross whole animal toxicity; also recorded: not accompanied by significant weight loss
- cures (MDA-MB-231 tumors; 2 μmmol/kg intravenous, 2 consecutive weeks): 4 of 5
